Literature values, collected in paper PMC10817174, “Integrated drug response prediction models pinpoint repurposed drugs with effectiveness against rhabdomyosarcoma” (PLOS ONE, 2024).

What was measured:
GDSC-RD cell line = conditions: Table S2, published drug response ref Iorio et al. (2016); cited from earlier work
GDSC-SJCRH30 cell line = conditions: Table S2, published drug response ref Iorio et al. (2016); cited from earlier work

CCc1cc(-c2n[nH]c(C)c2-c2ccc3c(c2)OCCO3)c(O)cc1O [CCT018159]
Iorio_RD (GDSC-RD cell line): R
Iorio_SJCRH30 (GDSC-SJCRH30 cell line): R

CC(C)(C)c1cc(NC(=O)Nc2ccc(-c3cn4c(n3)sc3cc(OCCN5CCOCC5)ccc34)cc2)no1 [AC220]
Iorio_RD (GDSC-RD cell line): R
Iorio_SJCRH30 (GDSC-SJCRH30 cell line): R

NC(=O)Nc1sc(-c2ccc(F)cc2)cc1C(N)=O [TPCA-1]
Iorio_RD (GDSC-RD cell line): R
Iorio_SJCRH30 (GDSC-SJCRH30 cell line): R

COc1cc2ncnc(-n3nc(-c4ccccn4)nc3N)c2cc1OC [CP466722]
Iorio_RD (GDSC-RD cell line): R
Iorio_SJCRH30 (GDSC-SJCRH30 cell line): R

COc1ccccc1S(=O)(=O)Nc1ccc2c(c1)CN(C)C(=O)N2 [PFI-1]
Iorio_RD (GDSC-RD cell line): R
Iorio_SJCRH30 (GDSC-SJCRH30 cell line): R

COc1ccc(C(=O)CC2(O)C(=O)Nc3c(Cl)ccc(Cl)c32)cc1 (centres unmarked) [YK-4-279]
Iorio_RD (GDSC-RD cell line): R
Iorio_SJCRH30 (GDSC-SJCRH30 cell line): R

COc1cc2nccc(Oc3ccc(NC(=O)C4(C(=O)Nc5ccc(F)cc5)CC4)cc3)c2cc1OC [XL-184]
Iorio_RD (GDSC-RD cell line): R
Iorio_SJCRH30 (GDSC-SJCRH30 cell line): R

C=CCc1cccc(/C=N/NC(=O)CN2CCN(Cc3ccccc3)CC2)c1O [PAC-1]
Iorio_RD (GDSC-RD cell line): R
Iorio_SJCRH30 (GDSC-SJCRH30 cell line): R

CCC/C=C/C=C/C(=O)O[C@H]1/C(=C/C(=O)OC)C[C@H]2C[C@H]([C@@H](C)O)OC(=O)C[C@H](O)C[C@@H]3C[C@H](OC(C)=O)C(C)(C)[C@](O)(C[C@@H]4C/C(=C/C(=O)OC)C[C@H](/C=C/C(C)(C)[C@]1(O)O2)O4)O3 [Bryostatin-1]
Iorio_RD (GDSC-RD cell line): R
Iorio_SJCRH30 (GDSC-SJCRH30 cell line): R

CN1CCc2c(c3ccccc3n2Cc2ccc(C(=O)NO)cc2)C1 [Tubastatin-A]
Iorio_RD (GDSC-RD cell line): S
Iorio_SJCRH30 (GDSC-SJCRH30 cell line): R

CCN1CCN(Cc2ccc(NC(=O)c3ccc(C)c(/C=C/c4cnc5[nH]ccc5c4OC)c3)cc2C(F)(F)F)CC1 [HG-6-64-1]
Iorio_RD (GDSC-RD cell line): R
Iorio_SJCRH30 (GDSC-SJCRH30 cell line): R

COc1cc(/C=C/C(=O)N2CCC=CC2=O)cc(OC)c1OC [piperlongumine]
Iorio_RD (GDSC-RD cell line): S
Iorio_SJCRH30 (GDSC-SJCRH30 cell line): R

Cc1ccc(F)c(NC(=O)Nc2ccc(-c3cccc4[nH]nc(N)c34)cc2)c1 [ABT-869]
Iorio_RD (GDSC-RD cell line): R
Iorio_SJCRH30 (GDSC-SJCRH30 cell line): R

CC(C)c1ccccc1Cc1cc(C(=O)Nc2ccc(S(=O)(=O)c3ccccc3C(C)(C)C)cc2)c(O)c(O)c1O [TW-37]
Iorio_RD (GDSC-RD cell line): R
Iorio_SJCRH30 (GDSC-SJCRH30 cell line): R

O=C(O)c1ccc(-c2c[nH]c3ncc(-c4ccccc4)cc23)cc1C1CCCC1 [GSK-650394]
Iorio_RD (GDSC-RD cell line): R
Iorio_SJCRH30 (GDSC-SJCRH30 cell line): R

Oc1cccc(-c2nc(N3CCOCC3)c3oc4ncccc4c3n2)c1 [PI-103]
Iorio_RD (GDSC-RD cell line): R
Iorio_SJCRH30 (GDSC-SJCRH30 cell line): R

CC(C)N(CCCNC(=O)Nc1ccc(C(C)(C)C)cc1)C[C@H]1O[C@@H](n2cc(Br)c3c(N)ncnc32)[C@H](O)[C@@H]1O [SGC0946]
Iorio_RD (GDSC-RD cell line): R
Iorio_SJCRH30 (GDSC-SJCRH30 cell line): R

CCNC(=O)c1noc(-c2cc(C(C)C)c(O)cc2O)c1-c1ccc(CN2CCOCC2)cc1 [AUY922]
Iorio_RD (GDSC-RD cell line): R
Iorio_SJCRH30 (GDSC-SJCRH30 cell line): R

O=S(=O)(O)c1ccc2cc(N=Nc3cc(S(=O)(=O)O)c4cccnc4c3O)ccc2c1 [NSC-87877]
Iorio_RD (GDSC-RD cell line): R
Iorio_SJCRH30 (GDSC-SJCRH30 cell line): R

O=C(Nc1ccc(OC(F)(F)F)cc1)c1sccc1NCc1ccnc2ccccc12 [OSI-930]
Iorio_RD (GDSC-RD cell line): R
Iorio_SJCRH30 (GDSC-SJCRH30 cell line): R

COc1cccc2c1C(=O)c1c(O)c3c(c(O)c1C2=O)C[C@@](O)(C(=O)CO)C[C@@H]3O[C@H]1C[C@H](N)[C@H](O)[C@H](C)O1 [Doxorubicin]
Iorio_RD (GDSC-RD cell line): R
Iorio_SJCRH30 (GDSC-SJCRH30 cell line): R

CCT007093
Iorio_RD (GDSC-RD cell line): R
Iorio_SJCRH30 (GDSC-SJCRH30 cell line): R

CCc1cc(Nc2nccc(-c3c(-c4ccc(OC)c(C(=O)Nc5c(F)cccc5F)c4)nc4ccccn34)n2)c(OC)cc1N1CCC(N2CCN(S(C)(=O)=O)CC2)CC1 [GSK-1904529A]
Iorio_RD (GDSC-RD cell line): R
Iorio_SJCRH30 (GDSC-SJCRH30 cell line): R

CCC1=C[C@@H]2CN(C1)Cc1c([nH]c3ccccc13)[C@@](C(=O)OC)(c1cc3c(cc1OC)N(C)[C@H]1[C@@](O)(C(=O)OC)[C@H](OC(C)=O)[C@]4(CC)C=CCN5CC[C@]31[C@@H]54)C2 [Vinorelbine]
Iorio_RD (GDSC-RD cell line): R
Iorio_SJCRH30 (GDSC-SJCRH30 cell line): R

Cc1ccc2nc(NCCN)c3ncc(C)n3c2c1 [BMS-345541]
Iorio_RD (GDSC-RD cell line): R
Iorio_SJCRH30 (GDSC-SJCRH30 cell line): R

CO[C@@]12[C@H](COC(N)=O)C3=C(C(=O)C(C)=C(N)C3=O)N1C[C@@H]1N[C@@H]12 [Mitomycin-C]
Iorio_RD (GDSC-RD cell line): R
Iorio_SJCRH30 (GDSC-SJCRH30 cell line): R

Oc1ccc2ccccc2c1SSc1c(O)ccc2ccccc12 [IPA-3]
Iorio_RD (GDSC-RD cell line): R
Iorio_SJCRH30 (GDSC-SJCRH30 cell line): R

CC(C)=CC[C@@H](O)C1=CC(=O)c2c(O)ccc(O)c2C1=O [Shikonin]
Iorio_RD (GDSC-RD cell line): R
Iorio_SJCRH30 (GDSC-SJCRH30 cell line): R

Nc1ccc(C(=O)Nc2cccc(-c3nc(N4CCOCC4)c4oc5ncccc5c4n3)c2)cn1 [YM201636]
Iorio_RD (GDSC-RD cell line): R
Iorio_SJCRH30 (GDSC-SJCRH30 cell line): R

Cc1ccc(C(=O)N(CCCN)[C@@H](c2nc3cc(Cl)ccc3c(=O)n2Cc2ccccc2)C(C)C)cc1 [SB-715992]
Iorio_RD (GDSC-RD cell line): R
Iorio_SJCRH30 (GDSC-SJCRH30 cell line): R

O=C(NC(COc1ccc2[nH]c(=O)[nH]c2c1)c1ccccc1)c1cccn(Cc2ccc(F)c(F)c2)c1=O (centres unmarked) [KIN001-244]
Iorio_RD (GDSC-RD cell line): R
Iorio_SJCRH30 (GDSC-SJCRH30 cell line): R

COc1ccc(-c2cc3nccn3c(Nc3ncccc3C(N)=O)n2)cc1OC [BAY-61-3606]
Iorio_RD (GDSC-RD cell line): R
Iorio_SJCRH30 (GDSC-SJCRH30 cell line): R

CC(=O)Nc1cccc(-n2c(=O)n(C3CC3)c(=O)c3c(Nc4ccc(I)cc4F)n(C)c(=O)c(C)c32)c1 [Trametinib]
Iorio_RD (GDSC-RD cell line): S
Iorio_SJCRH30 (GDSC-SJCRH30 cell line): R

COc1cc(O)c2c(c1)/C=C/C[C@H](O)[C@H](O)C(=O)/C=C\C[C@H](C)OC2=O [Oxozeaenol]
Iorio_RD (GDSC-RD cell line): S
Iorio_SJCRH30 (GDSC-SJCRH30 cell line): R

COc1cc2nccc(Oc3ccc(NC(=O)Nc4cc(C)on4)c(Cl)c3)c2cc1OC [AV-951, tivozanib]
Iorio_RD (GDSC-RD cell line): R
Iorio_SJCRH30 (GDSC-SJCRH30 cell line): R

CC/C(=C(\c1ccccc1)c1ccc(OCCN(C)C)cc1)c1ccccc1 [Tamoxifen]
Iorio_RD (GDSC-RD cell line): R
Iorio_SJCRH30 (GDSC-SJCRH30 cell line): R

CN(c1ncccc1CNc1nc(Nc2ccc3c(c2)CC(=O)N3)ncc1C(F)(F)F)S(C)(=O)=O [PF-562271]
Iorio_RD (GDSC-RD cell line): R
Iorio_SJCRH30 (GDSC-SJCRH30 cell line): R

S=C(NCc1ccc2c(c1)OCO2)N1CCN(c2ncnc3c2oc2ccccc23)CC1 [MP470]
Iorio_RD (GDSC-RD cell line): R
Iorio_SJCRH30 (GDSC-SJCRH30 cell line): R

Cc1ccc(C(=O)Nc2cccc(C(F)(F)F)c2)cc1Nc1nc(-c2cccnc2)nc2c1cnn2C [NVP-BHG712]
Iorio_RD (GDSC-RD cell line): R
Iorio_SJCRH30 (GDSC-SJCRH30 cell line): R

I-BET-151
Iorio_RD (GDSC-RD cell line): R
Iorio_SJCRH30 (GDSC-SJCRH30 cell line): R

CC(C)(C)c1nc(-c2cccc(NS(=O)(=O)c3c(F)cccc3F)c2F)c(-c2ccnc(N)n2)s1 [Dabrafenib]
Iorio_RD (GDSC-RD cell line): R
Iorio_SJCRH30 (GDSC-SJCRH30 cell line): R

CCOc1cc2ncc(C#N)c(Nc3ccc(F)c(Cl)c3)c2cc1NC(=O)/C=C/CN(C)C [EKB-569]
Iorio_RD (GDSC-RD cell line): R
Iorio_SJCRH30 (GDSC-SJCRH30 cell line): R

COc1cc(OC)cc(-c2ccc3ncc4ccc(=O)n(-c5ccc(N6CCNCC6)c(C(F)(F)F)c5)c4c3c2)c1 [JW-7-24-1]
Iorio_RD (GDSC-RD cell line): R
Iorio_SJCRH30 (GDSC-SJCRH30 cell line): R

Oc1nc(-c2ccc(C(F)(F)F)cc2)nc2c1CSCC2 [XAV-939]
Iorio_RD (GDSC-RD cell line): R
Iorio_SJCRH30 (GDSC-SJCRH30 cell line): R

CCc1nc(-c2cccc(C)c2)c(-c2ccnc(NC(=O)c3ccccc3)c2)s1 [TAK-715]
Iorio_RD (GDSC-RD cell line): R
Iorio_SJCRH30 (GDSC-SJCRH30 cell line): R

COC(=O)CNC(=O)C(=O)OC [DMOG]
Iorio_RD (GDSC-RD cell line): R
Iorio_SJCRH30 (GDSC-SJCRH30 cell line): R

CCN1CCN(Cc2ccc(NC(=O)c3ccc(C)c(Oc4ccnc5[nH]ccc45)c3)cc2C(F)(F)F)CC1 [NG-25]
Iorio_RD (GDSC-RD cell line): R
Iorio_SJCRH30 (GDSC-SJCRH30 cell line): R

COc1cc(N2CCN(C)CC2)ccc1Nc1nc(N)c(C(=O)c2c(Cl)cccc2Cl)s1 [XMD14-99]
Iorio_RD (GDSC-RD cell line): R
Iorio_SJCRH30 (GDSC-SJCRH30 cell line): R

COc1nc(C)cnc1NS(=O)(=O)c1cccnc1-c1ccc(-c2nnco2)cc1 [Zibotentan]
Iorio_RD (GDSC-RD cell line): R
Iorio_SJCRH30 (GDSC-SJCRH30 cell line): R

COc1cc(N2CCC(O)CC2)ccc1Nc1cc(Nc2ccccc2S(=O)(=O)C(C)C)c2cc[nH]c2n1 [MPS-1-IN-1]
Iorio_RD (GDSC-RD cell line): R
Iorio_SJCRH30 (GDSC-SJCRH30 cell line): R

N#CC(c1ccnc(NCCc2cccnc2)n1)c1nc2ccccc2s1 (centres unmarked) [AS601245]
Iorio_RD (GDSC-RD cell line): R
Iorio_SJCRH30 (GDSC-SJCRH30 cell line): R

C=CC(=O)Nc1cc(-n2c(=O)ccc3cnc4ccc(-c5cn[nH]c5)cc4c32)ccc1C [QL-X-138]
Iorio_RD (GDSC-RD cell line): R
Iorio_SJCRH30 (GDSC-SJCRH30 cell line): R

COc1cccc2cc(-c3nc([C@H]4CC[C@H](C(=O)O)CC4)n4ncnc(N)c34)[nH]c12 [OSI-027]
Iorio_RD (GDSC-RD cell line): R
Iorio_SJCRH30 (GDSC-SJCRH30 cell line): R

CC(=O)Nc1nc(C)c(-c2ccc(Cl)c(S(=O)(=O)NCCO)c2)s1 [PIK-93]
Iorio_RD (GDSC-RD cell line): R
Iorio_SJCRH30 (GDSC-SJCRH30 cell line): R

Cc1cnc(CNC(=O)c2c(=O)c3ccc(N4CCCN(C)CC4)nc3n3c2sc2ccccc23)cn1 [CX-5461]
Iorio_RD (GDSC-RD cell line): S
Iorio_SJCRH30 (GDSC-SJCRH30 cell line): R
